Data as given in patent US20190233884A1 (University of Southern California, priority 2016, published 2019).
“And” between values parts separate entries of the source, which are not always exact repeats. Identical values can stand only once.

Test system: patients with refractory metastatic colorectal cancer (mCRC)
Experiment: PFS, OS and disease control in the control cohort of refractory mCRC patients receiving regorafenib (n=52, Italy), by baseline characteristics and SNP genotype
Assay type: in vivo, human
Method: All patients underwent the treatment in salvage-line setting.
(§1) Patients in the control group received 160 mg regorafenib (Bayer, Leverkusen, Germany) once daily from day 1 to 21 every 4 weeks. Doses were adjusted based on haematological and non-haematological adverse events at the treating physician's discretion in accordance with the manufacturer's recommendations. The analyses were approved by the University of Southern California (USC) Institutional Review Board of Medical Sciences and conducted at the USC/Norris Comprehensive Cancer Center in accordance with the Declaration of Helsinki and Good Clinical Practice Guidelines.
(§2) Genomic DNA was extracted from peripheral whole blood in patients of all cohorts using the QIAmp Kit (Qiagen, Valencia, Calif., USA) according to the manufacturer's protocol (www.qiagen.com). The candidate SNPs were genotyped using PCR-based direct DNA sequence analysis by ABI 3100A Capillary Genetic Analyzer and Sequencing Scanner v1.0 (Applied Biosystems). Amplification of extracted DNA was carried out using both forward and reverse primers for each gene polymorphism as shown in Table 1. […] The investigators analyzing SNPs were blinded to the clinical data of the study patients.
The primary endpoint in this study was progression-free survival (PFS), and the secondary endpoints were overall survival (OS) and disease control rate (DCR). PFS was calculated from the date of starting treatment to the first observation of disease progression or death from any cause. If a patient had no disease progression or death, PFS was censored at the date of last follow up. OS was calculated from the date of starting treatment until the date of death from any cause or the date of the last follow-up, at which point OS was censored. The disease control rate (DCR) was defined as the proportion of patients who achieved a stable disease (SD) or […] according to RECISTv1.1. Chi-square test was used to examine the difference in baseline patient characteristics among the three cohorts. Allelic distribution of all SNPs by ethnicity for deviation from Hardy-Weinberg equilibrium and the allelic frequencies of SNPs were tested using the Chi-square tests with one degree of freedom. The associations between candidate SNPs and disease control, and toxicities were examined using contingency tables and Fisher's exact test. The associations of SNPs with PFS and OS were analysed using Kaplan-Meier curves and the log-rank test. Because the true mode of inheritance of candidate SNPs was not established yet, a codominant or dominant genetic model if appropriate was considered.
All patients underwent the treatment in salvage-line setting. […] In all patients, adverse events were graded according to the Common Terminology Criteria for Adverse Events, version 4.0.
as §1, with “events at treating physician's” for “events at the treating physician's”
as §2, with “tested” for “genotyped”, “Biosystems).” for “Biosystems). Amplification of extracted DNA was carried out using both forward and reverse primers for each gene polymorphism as shown in Table 1.”, “data.” for “data of the study patients.”
The primary endpoint in this study was progression-free survival (PFS), and the secondary endpoints were overall survival (OS) and disease control rate (DCR). […]

[1] = control cohort, Sex Female vs Male (Ref.), univariate
[2] = control cohort, Tumor site Left
[3] = control cohort, Tumor site Left vs Right (Ref.), univariate
[4] = control cohort, Tumor site Right
[5] = control cohort, XRCC3 rs861539 A/A
[6] = control cohort, XRCC3 rs861539 A/A vs G/G (Ref.), multivariable
[7] = control cohort, XRCC3 rs861539 A/A vs G/G (Ref.), univariate
[8] = control cohort, XRCC3 rs861539 Any A
[9] = control cohort, XRCC3 rs861539 Any A vs G/G (Ref.), multivariable
[10] = control cohort, XRCC3 rs861539 Any A vs G/G (Ref.), univariate
[11] = control cohort, XRCC3 rs861539 G/A
[12] = control cohort, XRCC3 rs861539 G/A vs G/G (Ref.), multivariable
[13] = control cohort, XRCC3 rs861539 G/A vs G/G (Ref.), univariate
[14] = control cohort, XRCC3 rs861539 G/G
[15] = control cohort, MATE1 rs2289669 A/A
[16] = control cohort, MATE1 rs2289669 G/A
[17] = control cohort, MATE1 rs2289669 G/A and A/A combined
[18] = control cohort, MATE1 rs2289669 G/A and A/A combined vs G/G
[19] = control cohort, MATE1 rs2289669 G/G
[20] = control cohort, OCT2 rs316019 A/A
[21] = control cohort, OCT2 rs316019 C/A
[22] = control cohort, OCT2 rs316019 C/A and A/A combined
[23] = control cohort, OCT2 rs316019 C/A and A/A combined vs C/C
[24] = control cohort, OCT2 rs316019 C/C
[25] = control cohort, adjusted for ECOG performance status and number of metastases
[26] = control cohort, hENT1 rs760370 A/A
[27] = control cohort, hENT1 rs760370 A/G
[28] = control cohort, hENT1 rs760370 A/G vs A/A
[29] = control cohort, hENT1 rs760370 Any G
[30] = control cohort, hENT1 rs760370 Any G vs A/A
[31] = control cohort, hENT1 rs760370 G/G
[32] = control cohort, hENT1 rs760370 G/G vs A/A
[33] = control cohort, hENT rs9394992 C/C
[34] = control cohort, hENT rs9394992 C/T
[35] = control cohort, hENT rs9394992 C/T and T/T combined
[36] = control cohort, hENT rs9394992 C/T and T/T combined vs C/C
[37] = control cohort, hENT rs9394992 T/T

CNC(=O)c1cc(Oc2ccc(NC(=O)Nc3ccc(Cl)c(C(F)(F)F)c3)c(F)c2)ccn1 [regorafenib]
Median OS (control cohort, Sex Female): 5.5 months
Median PFS (control cohort, Sex Female): 2.0 months
HR OS [1]: 1.18
HR PFS [1]: 1.02
Median OS (control cohort, Sex Male): 5.4 months
Median PFS (control cohort, Sex Male): 1.8 months
Median OS [2]: 7.2 months
Median PFS [2]: 2.2 months
HR OS [3]: 0.82
HR PFS [3]: 0.80
Median OS [4]: 3.9 months
Median PFS [4]: 1.8 months
Disease Control CR/PR/SD, patients n (%) [5]: 3 (43%)
Median OS (95% CI) [5]: 5.4 (2.3, 9.1) months
Median PFS (95% CI) [5]: 2.7 (1.7, 4.3) months
PD, patients n (%) [5]: 4 (57%)
HR OS (95% CI) [6]: 0.54 (0.21, 1.40)
HR PFS (95% CI) [6]: 0.62 (0.23, 1.65)
HR OS (95% CI) [7]: 0.34 (0.04, 2.95)
HR PFS (95% CI) [7]: 0.83 (0.34, 2.06)
Disease Control CR/PR/SD, patients n (%) [8]: 13 (38%)
Median OS (95% CI) [8]: 5.9 (3.8, 8.0) months
Median PFS (95% CI) [8]: 2.0 (1.8, 3.1) months
PD, patients n (%) [8]: 21 (62%)
HR OS (95% CI) [9]: 0.71 (0.38, 1.31)
HR PFS (95% CI) [9]: 0.85 (0.44, 1.63)
HR OS (95% CI) [10]: 0.72 (0.22, 2.39)
HR PFS (95% CI) [10]: 0.83 (0.45, 1.53)
Disease Control CR/PR/SD, patients n (%) [11]: 10 (37%)
Median OS (95% CI) [11]: 6.8 (3.6, 8.7) months
Median PFS (95% CI) [11]: 1.9 (1.8, 3.1) months
PD, patients n (%) [11]: 17 (63%)
HR OS (95% CI) [12]: 0.76 (0.40, 1.44)
HR PFS (95% CI) [12]: 0.92 (0.47, 1.79)
HR OS (95% CI) [13]: 0.86 (0.25, 2.96)
HR PFS (95% CI) [13]: 0.83 (0.44, 1.56)
Disease Control CR/PR/SD, patients n (%) [14]: 4 (27%)
Median OS (95% CI) [14]: 4.1 (1.7, 6.0) months
Median PFS (95% CI) [14]: 1.7 (1.0, 2.2) months
PD, patients n (%) [14]: 11 (73%)
Disease Control Rate PD [15]: 5 (50%)
Disease Control Rate SD [15]: 3 (50%)
Disease Control Rate SD [16]: 7 (27%)
PD, patients n (%) [16]: 19 (73%)
Overall Survival Median, months (95% CI) [17]: 5.3 (3.7, 8.0) months
Progression-free Survival Median, months (95% CI) [17]: 1.8 (1.7, 2.8) months
Overall Survival HR (95% CI) multivariate [18]: 0.99 (0.52, 1.91)
Overall Survival HR (95% CI) univariate [18]: 0.85 (0.50, 1.57)
Progression-free Survival HR (95% CI) multivariate [18]: 0.86 (0.43, 1.70)
Progression-free Survival HR (95% CI) univariate [18]: 0.65 (0.48, 1.52)
Disease Control Rate PD [19]: 10 (59%)
Disease Control Rate SD [19]: 7 (41%)
Overall Survival Median, months (95% CI) [19]: 5.7 (2.2, 7.8) months
Progression-free Survival Median, months (95% CI) [19]: 2.1 (1.5, 3.1) months
Overall Survival HR (95% CI) univariate (control cohort, OCT2 rs316000): 0.95 (0.50, 1.83)
Progression-free Survival HR (95% CI) univariate (control cohort, OCT2 rs316000): 0.95 (0.50, 1.83)
Disease Control Rate PD [20]: 1 (100%)
Disease Control Rate SD [20]: 0
Disease Control Rate PD [21]: 6 (86%)
Disease Control Rate SD [21]: 1 (14%)
Overall Survival Median, months (95% CI) [22]: 5.3 (3.6, 9.6) months
Progression-free Survival Median, months (95% CI) [22]: 1.8 (1.5, 2.0) months
Overall Survival HR (95% CI) multivariate [23]: 0.90 (0.39, 2.09)
Overall Survival HR (95% CI) univariate [23]: 0.79 (0.35, 1.75)
Progression-free Survival HR (95% CI) multivariate [23]: 1.50 (0.62, 3.61)
Progression-free Survival HR (95% CI) univariate [23]: 1.00 (0.44, 2.25)
Disease Control Rate PD [24]: 25 (61%)
Disease Control Rate SD [24]: 16 (39%)
Overall Survival Median, months (95% CI) [24]: 3.3 (2.6, 7.9) months
Progression-free Survival Median, months (95% CI) [24]: 2.1 (1.7, 3.2) months
Overall Survival HR (95% CI) multivariate [25]: 0.80 (0.40, 1.61)
Progression-free Survival HR (95% CI) multivariate [25]: 0.88 (0.45, 1.70)
Disease Control Rate PD [26]: 15 (65%) and 13 (65%)
Disease Control Rate SD [26]: 7 (35%)
Overall Survival Median, months (95% CI) [26]: 5.9 (4.5, 8.0) months and 5.9 (4.5, 5.0) months
Progression-free Survival Median, months (95% CI) [26]: 2.1 (1.8, 3.1) months
Disease Control Rate PD [27]: 11 (61%)
Disease Control Rate SD [27]: 7 (39%)
Overall Survival Median, months (95% CI) [27]: 5.7 (2.0, 8.9) months
Progression-free Survival Median, months (95% CI) [27]: 1.9 (1.6, 3.9) months
Overall Survival HR (95% CI) multivariate [28]: 0.95 (0.50, 1.90)
Overall Survival HR (95% CI) univariate [28]: 1.25 (0.67, 2.35)
Progression-free Survival HR (95% CI) multivariate [28]: 1.08 (0.57, 2.08)
Progression-free Survival HR (95% CI) univariate [28]: 1.26 (0.67, 2.37)
Disease Control Rate PD [29]: 19 (66%)
Disease Control Rate SD [29]: 10 (34%)
Overall Survival Median, months (95% CI) [29]: 4.1 (2.2, 7.8 ) months
Progression-free Survival Median, months (95% CI) [29]: 1.8 (1.5, 2.2) months
Overall Survival HR (95% CI) multivariate [30]: 1.01 (0.55, 1.88)
Overall Survival HR (95% CI) univariate [30]: 1.22 (0.70, 2.13)
Progression-free Survival HR (95% CI) multivariate [30]: 1.15 (0.61, 2.15)
Progression-free Survival HR (95% CI) univariate [30]: 1.25 (0.71, 2.20)
Disease Control Rate SD [31]: 3 (27%)
Overall Survival Median, months (95% CI) [31]: 2.4 (1.2, 9.1) months
PD, patients n (%) [31]: 8 (73%)
Progression-free Survival Median, months (95% CI) [31]: 1.4 (0.4, 4.3) months
Overall Survival HR (95% CI) multivariate [32]: 1.11 (0.48, 2.56)
Overall Survival HR (95% CI) univariate [32]: 1.17 (0.55, 2.46)
Progression-free Survival HR (95% CI) multivariate [32]: 1.57 (0.57, 4.35)
Progression-free Survival HR (95% CI) univariate [32]: 1.24 (0.59, 2.59)
Disease Control Rate PD [33]: 14 (70%)
Disease Control Rate SD [33]: 6 (30%)
Overall Survival Median, months (95% CI) [33]: 4.4 (2.6, 6.0) months
Progression-free Survival Median, months (95% CI) [33]: 2.0 (1.2, 2.7) months
Disease Control Rate PD [34]: 16 (70%)
Disease Control Rate SD [34]: 7 (30%)
Overall Survival Median, months (95% CI) [35]: 7.7 (3.7, 8.9) months
Progression-free Survival Median, months (95% CI) [35]: 1.9 (1.7, 3.9) months
Overall Survival HR (95% CI) multivariate [36]: 0.64 (0.32, 1.30)
Overall Survival HR (95% CI) univariate [36]: 0.57 (0.31, 1.05)
Progression-free Survival HR (95% CI) multivariate [36]: 0.85 (0.46, 1.59)
Progression-free Survival HR (95% CI) univariate [36]: 0.75 (0.42, 1.32)
Disease Control Rate PD [37]: 2 (33%)
Disease Control Rate SD [37]: 4 (67%)
Progression-free Survival Median, months (95% CI) (control cohort, per OCT2 rs316000 genotype (row), OCT2 rs316000 Any A genotype): 1.8 (1.6, 2.8) months
Progression-free Survival Median, months (95% CI) (control cohort, per OCT2 rs316000 genotype (row), OCT2 rs316000 G/G genotype): 2.1 (1.7, 3.1) months
Median OS (whole control cohort): 5.3 months
Median PFS (whole control cohort): 1.9 months
